According to US20080124809A1, “Method of Interaction Observation” (RIKEN, priority 2004, published 2008):

Key:
anti-DIG antibody = assay: SPR imaging of anti-DIG antibody binding to the immobilized small molecular array; conditions: 4 J/cm^2; for binding of anti-DIG antibody to immobilized substance (FIG. 15): Comparative Example 2: irradiated at 245 nm, 50 μg/mL antibody run for 5 minutes; for binding of anti-DIG antibody to immobilized substance (FIG. 12): Example 1: photoimmobilized at 365 nm, 50 μg/mL antibody
anti-EST antibody = assay: SPR imaging of anti-EST antibody binding to the immobilized small molecular array; conditions: Example 1: photoimmobilized at 365 nm, 4 J/cm^2; 50 μg/mL antibody

Row | binding of anti-EST antibody to immobilized substance (FIG. 13) (anti-EST antibody) | Compound | binding of anti-DIG antibody to immobilized substance (FIG. 15) (anti-DIG antibody) | binding of anti-DIG antibody to immobilized substance (FIG. 12) (anti-DIG antibody)
1 |  | C[C@H]1O[C@@H](O[C@H]2[C@@H](O)C[C@H](O[C@H]3[C@@H](O)C[C@H](O[C@H]4CC[C@@]5(C)[C@H](CC[C@@H]6[C@@H]5C[C@@H](O)[C@]5(C)[C@@H](C7=CC(=O)OC7)CC[C@]65O)C4)O[C@@H]3C)O[C@@H]2C)C[C@H](O)[C@@H]1O [DIG, digoxin] | observed | obvious
2 |  | C[C@H]1O[C@@H](O[C@H]2[C@@H](O)C[C@H](O[C@H]3[C@@H](O)C[C@H](O[C@H]4CC[C@@]5(C)[C@H](CC[C@@H]6[C@@H]5CC[C@]5(C)[C@@H](C7=CC(=O)OC7)CC[C@]65O)C4)O[C@@H]3C)O[C@@H]2C)C[C@H](O)[C@@H]1O [DTN, digitoxin] | observed | obvious
3 | No binding | C[C@]12CCC(=O)C=C1CC[C@@H]1[C@@H]2[C@@H](O)C[C@@]2(C)[C@H]1CC[C@]2(O)C(=O)CO [HCN, Hydrocortisone] |  | 
4 | No binding | CC(=O)[C@H]1CC[C@H]2[C@@H]3CCC4=CC(=O)CC[C@]4(C)[C@H]3CC[C@]12C [PGS, Progesterone] |  | 

Row | Compound | binding of anti-EST antibody to immobilized substance (FIG. 13) (anti-EST antibody) | binding of anti-DIG antibody to immobilized substance (FIG. 15) (anti-DIG antibody) | binding of anti-DIG antibody to immobilized substance (FIG. 12) (anti-DIG antibody)
5 | C[C@]12CC[C@@H]3c4ccc(O)cc4CC[C@H]3[C@@H]1CC[C@@H]2O [EST, β-Estradiol] | bound to only the spots of EST |  | 
